Source: patent US12053533B2, “Fluorescent probe for cyclooxygenase-2” (The Board of Trustees of the University of Illinois, priority 2020, dated 2024)

Legend:
[1] = system: COX-2 activity in HEK 293T cells over-expressing human COX-2; test: Confocal live-cell imaging of human COX-2 transfected HEK 293T cells; assay type: cell-based; settings: CoxFluor 10 μM
Experimental: Prior to plating onto 4-well chambered cover glasses, the surface exposed substrate was coated with R&D Systems™ Cultrex Poly-L-Lysine (Fisher Scientific) according to the manufacturers protocol (allowed to dry>3 h). […] Transfections was performed using Lipofectamine 3000 (Thermo Fisher Scientific) according to the manufacturer's protocol. […] Media was removed from each well and replaced with 500 μL Opti-MEM™ Reduced Serum Media followed by the addition of 20 μL transfection master mix.
Transfections were performed using the Lipofectamine 3000 reagent according to the aforementioned protocol. Control wells were treated the same as the transfected wells without the addition of the transfection master mix. […] Each well was imaged using a Zeiss LSM 700 confocal microscope (n=3 technical replicates; n=4 biological replicates). For GSH knockdown experiments, the initial media change was performed with 1 mM NEM (0.1% DMSO final concentration) in serum-free DMEM media and the cells were allowed to incubate for 30 minutes before proceeding to the staining with CoxFluor. […] All images were processed using identical parameters and false colored (LUT: jet.lut) in ImageJ.

[2] = system: endogenous COX-2 activity in RAW 264.7 macrophage cells; test: Confocal live-cell imaging of LPS-activated RAW 264.7 macrophages; assay type: cell-based, mouse; settings: CoxFluor 10 μM, 4 h, LPS 1 μg/mL, BSO 200 μM
Experimental: Confocal Fluorescence Live-Cell Imaging of Lipopolysaccharide-activated RAW 264.7 Macrophages. The surface exposed substrate of 4-well chambered cover glasses was coated with R&D Systems™ Cultrex Poly-L-Lysine (Fisher Scientific) using the manufacturer's protocol. Plates were seeded with 180,000 cells per well (500 μL of 360,000 cells/mL in DMEM media supplemented with 10% FBS) and were allowed to incubate for 38 h at 37° C. with 5% CO2 (70-80% confluent). […] The cells were incubated under these conditions for 17 h at 37° C. with 5% CO2. […] Finally, the cells were stained under identical conditions supplemented with 10 μM CoxFluor (500 μL final volume containing 1.5% DMSO final concentration). After incubation at 37° C. with 5% CO2 for 4 h, each well was imaged using a Zeiss LSM 700 confocal microscope (n=3 technical replicates; n=4 biological replicates). Images were quantified over the entire imaging window, without any processing, using ImageJ (v. 1.51, NIH). All images were processed using identical parameters and false colored (LUT: jet.lut) in ImageJ.

HEK 293T cells = test: Cell viability (trypan blue exclusion and MTT) in HEK 293T cells; assay type: cell-based; settings: 6 h incubation
Experimental: Trypan Blue Exclusion Cytotoxicity Assay. 6-well plates were seeded with 300,000 cells per well (2 mL of 150,000 cells/mL) and incubated at 37° C. with 5% CO2 for 48 to 72 h (˜60-80% confluent). Media was removed and replaced with either 5, 10, or 25 μM CoxFluor in fresh serum-free DMEM media (1.25% DMSO v/v final concentration). […] The trypsin was quenched with the addition of 1.8 mL DMEM media containing 10% FBS and the cells were mixed thoroughly before diluting 1:1 with trypan blue (0.4% in PBS w/v). Percent viability was measured using a Countess® II FL Automated Cell Counter (Thermo Fisher Scientific), where the parameters were optimized to identify live and dead cells. Viability was calculated by the relative to the vehicle control.
MTT Cytotoxicity Assay. […] The media was removed at various time points (3 or 6 h) and replaced with 200 μL 20:1 mixture of FBS-free DMEM and (3-(4,5-dimethylthiazol-2-yl)-2,5-diphenyl-tetrazolium bromide (MTT, 5 mg/mL stock in PBS). The cells were incubated for 4 h under the same conditions and then the medium was removed and replaced with DMSO (200 μL/well). The absorbance of each well was recorded after a 1:5 dilution in DMSO at 555 nm on a microplate reader. Viability was calculated by the absorbance relative to the vehicle control.

[3] = system: horseradish peroxidase, bovine catalase, porcine esterase, human CYP2J2 (with cytochrome reductase), rat liver microsomes; test: Enzyme selectivity panel (off-target activation); assay type: biochemical; settings: 10-fold excess protein (1.01 U vs 0.101 U COX-2), CoxFluor 10 μM
Experimental: Enzyme Selectivity. Enzyme activity was defined as the amount substrate (μmol) consumed during one minute by one milligram of enzyme in 100 mM Tris-HCl at pH 8.0 under saturating conditions. Enzyme concentrations were measured using the BCA assay (Thermo Fisher Scientific) according to the published protocol with bovine serum albumin for the standard curve. COX-1 and COX-2 cyclooxygenase activities were measured using Strathkelvin oxygen electrode with arachidonic acid (200 μM). The oxygen electrode was calibrated using 1% sodium sulfite for 0% oxygen and atmosphere equilibrated 100 mM Tris-HCl at pH 8.0 for 100% oxygen. The reaction was monitored at 37° C. in a glass chamber with a total reaction volume of 1 mL. […]
Porcine esterase activity was measured spectroscopically at 405 nm using p-nitrophenyl acetate (1.5 mM) as the substrate. Bovine catalase activity was measured using a discontinuous Amplex® Red-horseradish peroxidase assay to quantify the amount of hydrogen peroxide (initially 31.25 μM) remaining after 0.5 h incubation with excitation at 540 nm and emission at 590 nm. CYP2J2 activity was measured spectroscopically at 340 nm using […] (3-fold excess), NADPH (1 mM), and arachidonic acid (70 μM) as the substrate. […]
Selectivity was assessed using 10-fold excess protein (350 μg/mL) and the solution was brought to a pH of 8.0 after 4 h with 0.5 M aq. […]

CCCCC/C=C\C/C=C\C/C=C\C/C=C\CCCC(=O)N1c2ccc(O)cc2Oc2cc(O)ccc21 [CoxFluor]
fluorescence increase for transfected cells compared to the control ([1]; 3 h, N-ethylmaleimide glutathione depletion): 1.2 fold
fluorescence enhancement for the control relative to indomethacin-treated transfected cells ([1]; 4.5 h): 1.2 fold
fluorescent enhancement for LPS-stimulated cells relative to the control [2]: 1.2 fold
cell viability (HEK 293T cells): suitable viability
selectivity against tested enzymes [3]: good selectivity
